Assay results: patent US20040248869A1, “Method for finding novel active ingredients having androgen-type properties” (priority 2001, published 2004)

How the values were obtained:
male adult fibroblasts = male adult fibroblasts (cultures 2-6); increase based on the blank value; average of the two measuring conditions
Protocol: The process may be carried out, for example, as follows: cell suspensions of human fibroblasts (embryonal cells of adult male origin) are mixed with 1 to 2 mg/ml of a collagen suspension. […] After incubation for 7 days at 27° C./5% by volume carbon dioxide in a steam-saturated atmosphere, biopsies are taken and histological sections prepared. The quantity of macromolecules formed can be determined by two different methods:
1. a general determination by coloring the glucosaminoglucans (GAGs) with PAS Alcian Blue (standard coloration) and
2. a specific immunohistochemical characterization of certain elements of the matrix by treatment with antibodies, more especially anti-chondroitin sulfate, anti-keratan sulfate, anti-heparan sulfate, anti-dermatan sulfate, anti-elastin and anti-collagen (type III).
The fibroblasts are examined with a photon microscope in regard to the coloration (PAS Alcian) and with a confocal laser microscope in regard to the immunohistology. In order to determine the quantity of dermal macromolecules formed, micrographs are taken and the zones around the fibroblasts (“perifibroblastic zones”) are analyzed. Counting is done by image analysis, i.e. by determining the perifibroblastic zones and the gray level. Both parameters are directly proportional to the synthesis of dermal macromolecules. The results are evaluated in relation to the corresponding results without addition of the active components.
The numbers represent the increase in %-rel., based on the blank value, i.e. the absence of the male sex hormones, and expressed as the average of the two measuring conditions.

genital fibroblasts = conditions: Loire et al., Sultan et al.; cited from earlier work
embryonal fibroblasts = assay: Synthesis of dermal macromolecules in fibroblast cultures in collagen gel (embryonal fibroblasts); format: cell-based, human; conditions: increase based on the blank value (absence of hormone), average of the two measuring conditions
human skin cells = conditions: differentiation of human skin cells; cited from earlier work
epidermis = conditions: topical application, axillae of relatively old males; Kligman et al.; cited from earlier work

C[C@]12CCC(=O)C[C@@H]1CC[C@@H]1[C@@H]2CC[C@]2(C)[C@@H](O)CC[C@@H]12 [DHT, dihydrotestosterone]
Increase in the synthesis of macromolecules: Elastin (male adult fibroblasts): +552 %-rel.
Increase in the synthesis of macromolecules: Heparan sulfate (male adult fibroblasts): +486 %-rel.
DNA or protein distribution in the target cell (genital fibroblasts): does not affect

C[C@]12CC[C@H]3[C@@H](CCC4=CC(=O)CC[C@@]43C)[C@@H]1CC[C@@H]2O [T (soluble), testosterone]
Increase in the synthesis of macromolecules: Chondroitin sulfate (embryonal fibroblasts): +23 %-rel.
Increase in the synthesis of macromolecules: Collagen (embryonal fibroblasts): +17 %-rel.
Increase in the synthesis of macromolecules: Elastin (embryonal fibroblasts): +11 %-rel.

C[C@]12CC[C@H]3[C@@H](CCC4=CC(=O)CC[C@@]43C)[C@@H]1CC[C@@H]2O [T, testosterone]
Increase in the synthesis of macromolecules: Chondroitin sulfate (male adult fibroblasts): +537 %-rel.
Increase in the synthesis of macromolecules: Elastin (male adult fibroblasts): +2753 %-rel.
Increase in the synthesis of macromolecules: Keratan sulfate (male adult fibroblasts): +83 %-rel.
reduction of granular cells, keratohyalin granules and keratinosomes (human skin cells): does counteract the reduction

CCC(=O)O[C@H]1CC[C@H]2[C@@H]3CCC4=CC(=O)CC[C@]4(C)[C@H]3CC[C@]12C [testosterone propionate]
strength of the epidermis (epidermis): increases the strength of the epidermis
